US9353090B2, “Heterocyclic carboxylic acids as activators of soluble guanylate cyclase” (Boehringer Ingelheim International GmbH, priority 2014, dated 2016)
Converted amounts (≈) assume the structure as drawn.

What was measured:
[1] = target: human soluble guanylate cyclase alpha 1 and beta 1 subunits (sGC) (Homo sapiens (Human), UniProt Q02108+Q02153); assay: sGC cellular activator assay (cGMP, HTRF), in the presence and absence of 50% human serum; format: cell-based; details: CHO cells stably expressing human sGC alpha 1/beta 1, preincubated with 40 microM ODQ; cGMP by HTRF; Table 2 does not state whether with or without 50% human serum
human soluble guanylate cyclase alpha 1 and beta 1 subunits (sGC), sequence (Q02108 whole entry partner): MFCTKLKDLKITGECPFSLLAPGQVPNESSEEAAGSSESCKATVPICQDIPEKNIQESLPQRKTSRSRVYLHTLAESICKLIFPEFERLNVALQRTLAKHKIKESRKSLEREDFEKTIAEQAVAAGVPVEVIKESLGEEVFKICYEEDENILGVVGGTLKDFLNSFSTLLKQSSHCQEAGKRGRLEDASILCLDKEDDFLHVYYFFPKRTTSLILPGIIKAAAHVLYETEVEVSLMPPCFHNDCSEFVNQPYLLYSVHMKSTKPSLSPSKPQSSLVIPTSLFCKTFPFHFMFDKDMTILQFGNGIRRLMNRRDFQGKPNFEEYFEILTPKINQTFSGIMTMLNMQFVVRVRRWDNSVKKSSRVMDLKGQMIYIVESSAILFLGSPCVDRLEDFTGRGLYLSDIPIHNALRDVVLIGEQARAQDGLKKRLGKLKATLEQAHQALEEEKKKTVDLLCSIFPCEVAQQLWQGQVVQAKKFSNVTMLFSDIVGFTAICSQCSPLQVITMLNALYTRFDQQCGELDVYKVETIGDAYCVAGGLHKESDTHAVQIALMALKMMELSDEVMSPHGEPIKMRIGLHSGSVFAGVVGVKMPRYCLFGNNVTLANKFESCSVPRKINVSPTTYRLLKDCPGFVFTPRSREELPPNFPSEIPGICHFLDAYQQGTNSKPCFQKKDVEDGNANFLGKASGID
human soluble guanylate cyclase alpha 1 and beta 1 subunits (sGC), sequence (Q02153 whole entry): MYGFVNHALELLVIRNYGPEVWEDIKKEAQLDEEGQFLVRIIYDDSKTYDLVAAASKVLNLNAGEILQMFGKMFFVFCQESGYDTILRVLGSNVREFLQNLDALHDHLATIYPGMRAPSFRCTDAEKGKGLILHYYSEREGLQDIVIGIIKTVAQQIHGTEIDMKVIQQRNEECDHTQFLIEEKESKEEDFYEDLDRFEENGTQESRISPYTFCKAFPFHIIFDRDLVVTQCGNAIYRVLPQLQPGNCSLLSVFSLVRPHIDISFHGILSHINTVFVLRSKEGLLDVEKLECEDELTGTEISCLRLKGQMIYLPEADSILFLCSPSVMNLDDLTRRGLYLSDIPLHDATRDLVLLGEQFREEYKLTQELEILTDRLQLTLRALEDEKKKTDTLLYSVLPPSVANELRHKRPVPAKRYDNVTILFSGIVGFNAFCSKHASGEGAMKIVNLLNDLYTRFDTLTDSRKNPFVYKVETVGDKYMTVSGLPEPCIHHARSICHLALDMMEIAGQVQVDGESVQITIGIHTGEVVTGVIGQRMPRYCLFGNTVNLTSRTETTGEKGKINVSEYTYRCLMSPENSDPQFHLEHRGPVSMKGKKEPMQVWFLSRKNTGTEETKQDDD
How it was run: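 Heme-oxidized conditions: ODQ (40 microM, 1 h) pretreatment of CHO cells stably expressing human α1/β1 sGC, in buffer containing 0.1% BSA and IBMX.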

[2] = Human liver microsome (HLM) metabolic stability assay; format: in vitro ADME; details: human liver microsomes
How it was run: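 Compound at 1 uM incubated with human liver microsomes at 37° C. for 60 min after NADPH addition. Aliquots quenched in cold acetonitrile at 0, 5, 15, 30 and 60 min and analysed by LC/MS/MS. t1/2 from ln(% remaining) vs time slope; CLint, CLh and % Qh derived from it (n=1).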

physchem = details: kinetic from dmso stock
[3] = pH 2.2, aqueous buffer, Solubility (pH 2.2)
[4] = pH 4.5, aqueous buffer, Solubility (pH 4.5)
[5] = pH 6.8, aqueous buffer, Solubility (pH 6.8)

Row | Structure (SMILES) | EC50 [1] [nM] | Metabolic stability (Qh %), % hepatic blood flow [2] [%] | solubility at 24 h (physchem; [3]) [µg/mL] | solubility at 24 h (physchem; [4]) [µg/mL] | solubility at 24 h (physchem; [5]) [µg/mL]
1 | Cc1ccc(OCc2ccc3c(c2)CCCN(C2CCOCC2)C3)c(-c2csc(N3CC[C@@]4(C(=O)O)C[C@H]4C3)n2)c1 [Compound 199] | 145 | 46 | 134 (≈ 234 µM) | 51.6 (≈ 89.9 µM) | 23.8 (≈ 41.5 µM)
2 | COC[C@H]1N(c2cccc(-c3cccc(F)c3OCc3cc(C)c4c(c3)CCN(C3CCOCC3)C4)n2)C[C@@H]2C[C@@]21C(=O)O [Compound 213] | 134 | <24 | 144 (≈ 239 µM) | 109 (≈ 181 µM) | 81.3 (≈ 135 µM)
3 | CCO[C@H]1CN(c2nc(-c3cccc(Cl)c3OCc3cc4c(c(OC)c3)CN(C3CCOCC3)CC4)cs2)CC[C@H]1C(=O)O [Compound 261] | 3 | 29 | 116 (≈ 180 µM) | 40.7 (≈ 63.4 µM) | 38.9 (≈ 60.6 µM)
4 | Cc1c(COc2ccccc2-c2cccc(N3CC[C@@]4(C(=O)O)C[C@H]4C3)n2)ccc2c1CCN(C[C@H]1COCCO1)C2 [Compound 9] | 1 | 37 | 130 (≈ 228 µM) | 110 (≈ 193 µM) | 53 (≈ 93 µM)
5 | CO[C@@H]1CN(c2cccc(-c3cccc(C)c3OCc3ccc4c(c3)C(C)(C)CN(C3COC3)CC4)n2)CC[C@@H]1C(=O)O [Compound 326] | 1 | 59 | 129 (≈ 220 µM) | 91.1 (≈ 156 µM) | 71.6 (≈ 122 µM)
6 | COC[C@@H]1N(c2cccc(-c3cccc(C)c3OCc3cc(C)c4c(c3)CCN(C3CCOCC3)C4)n2)C[C@H]2C[C@]21C(=O)O [Compound 63] | 96 | <24 | 130 (≈ 217 µM) | 130 (≈ 217 µM) | 130 (≈ 217 µM)
7 | CCO[C@@H]1CN(c2nc(-c3cc(C)ccc3OCc3cc4c(c(OC)c3)CN(C3CCOCC3)CC4)cs2)CC[C@@H]1C(=O)O [Compound 229] | 4 | <24 | 122 (≈ 196 µM) | 116 (≈ 187 µM) | 114 (≈ 184 µM)
8 | COC[C@H]1N(c2nc(-c3cc(C)ccc3OCc3ccc4c(c3)CCN(C3CCOCC3)C4)cs2)C[C@@H]2C[C@@]21C(=O)O [Compound 163] | 345 | <24 | 110 (≈ 187 µM) | 77 (≈ 131 µM) | 65 (≈ 110 µM)
9 | Cc1ccc(OCc2cc(C)c3c(c2)CCN(C2CCOCC2)C3)c(-c2csc(N3CC[C@H](C(=O)O)[C@H](C)C3)n2)c1 [Compound 236] | 66 | <24 | 141 (≈ 245 µM) | 131 (≈ 228 µM) | 129 (≈ 225 µM)
10 | CCO[C@@H]1CN(c2cccc(-c3cccc(C)c3OCc3cc4c(c(OC)c3)CN(C3CCOCC3)CC4)n2)CC[C@@H]1C(=O)O [Compound 230] | 6 | 83 | 131 (≈ 213 µM) | 128 (≈ 209 µM) | 120 (≈ 194 µM)
11 | CO[C@@H]1CN(c2cccc(-c3cc(C)ccc3OCc3cc(C)c4c(c3)CCN(C3CCOCC3)C4)n2)CC[C@@H]1C(=O)O [Compound 76] | 25 | <24 | 130 (≈ 222 µM) | 110 (≈ 188 µM) | 80 (≈ 137 µM)
12 | COC[C@H]1N(c2cccc(-c3cccc(C)c3OCc3ccc4c(c3)CCN(C3CCOC3)C4)n2)C[C@@H]2C[C@@]21C(=O)O (mixture of isomers) [Compound 45] | 76 | <24 | 140 | 100 | 81
13 | Cc1cc(COc2ccccc2-c2cccc(N3CC[C@@]4(C(=O)O)C[C@H]4C3)n2)cc2c1CN(C1CCOCC1)CC2 [Compound 12] | 12 | <24 | 110 (≈ 199 µM) | 90 (≈ 163 µM) | 33 (≈ 59.6 µM)
14 | COC[C@H]1N(c2nccc(-c3cccc(C)c3OCc3cc(C)c4c(c3)CCN(C3CCOCC3)C4)n2)CC2C[C@@]21C(=O)O (some centres unmarked) [Compound 237] | 42 | <24 | 156 (≈ 260 µM) | 136 (≈ 227 µM) | 143 (≈ 238 µM)
15 | Cc1ccc(OCc2cc(C)c3c(c2)CCN(C2CCOCC2)C3)c(-c2csc(N3CC[C@@]4(C(=O)O)C[C@H]4C3)n2)c1 [Compound 123] | 10 | <24 | 120 (≈ 209 µM) | 32 (≈ 55.8 µM) | 3.3 (≈ 5.75 µM)
16 | CO[C@H]1CN(c2nc(-c3cc(C)ccc3OCc3cc(C)c4c(c3C)CCN(C3CCOCC3)C4)cs2)CC[C@H]1C(=O)O [Compound 181] | 23 | <24 | 120 (≈ 198 µM) | 53 (≈ 87.5 µM) | 5 (≈ 8.25 µM)

Now from value to compound:

Row | EC50 [1] [nM] | Metabolic stability (Qh %), % hepatic blood flow [2] [%] | solubility at 24 h (physchem; [3]) [µg/mL] | solubility at 24 h (physchem; [4]) [µg/mL] | solubility at 24 h (physchem; [5]) [µg/mL] | Structure (SMILES)
17 | 17 | <24 | 110 (≈ 193 µM) | 95 (≈ 167 µM) | 84 (≈ 147 µM) | COC[C@H]1N(c2cccc(-c3cccc(C)c3OCc3ccc4c(c3C)CCN(C3COC3)C4)n2)C[C@@H]2C[C@@]21C(=O)O [Compound 47]
18 | 9 | <24 | 110 (≈ 202 µM) | 70 (≈ 128 µM) | 56 (≈ 103 µM) | Cc1cccc(-c2csc(N3C[C@@H]4C[C@]4(C(=O)O)C3)n2)c1OCc1ccc2c(c1C)CCN(C1COC1)CC2 [Compound 143]
19 | 4 | 40 | 119 (≈ 198 µM) | 88.6 (≈ 147 µM) | 57.8 (≈ 96.1 µM) | COC[C@H]1N(c2cccc(-c3cccc(C)c3OCc3ccc4c(c3F)CCN(C3CCOC3)CC4)n2)C[C@@H]2C[C@@]21C(=O)O (some centres unmarked) [Compound 268]
20 | 4 | <24 | 110 (≈ 194 µM) | 93 (≈ 164 µM) | 68 (≈ 120 µM) | Cc1cccc(-c2cccc(N3C[C@@H]4C[C@]4(C(=O)O)C3)n2)c1OCc1ccc2c(c1C)CCN(C1CCOCC1)CC2 [Compound 33]
21 | 25 | <24 | 130 (≈ 221 µM) | 43.6 (≈ 73.9 µM) | 10.5 (≈ 17.8 µM) | COc1ccc(OCc2ccc3c(c2C)CCN(C2CCOCC2)C3)c(-c2csc(N3CC[C@@]4(C(=O)O)C[C@H]4C3)n2)c1 [Compound 200]
22 | 23 | <24 | 140 (≈ 238 µM) | 20 (≈ 34 µM) | 1.2 (≈ 2.04 µM) | Cc1ccc(OCc2cc(C)c3c(c2C)CCN(C2CCOCC2)C3)c(-c2csc(N3CC[C@@]4(C(=O)O)C[C@H]4C3)n2)c1 [Compound 125]
23 | 6 | <24 | 120 (≈ 209 µM) | 7.7 (≈ 13.4 µM) | 0.49 (≈ 0.854 µM) | Cc1ccc(OCc2cc(C)c3c(c2C)CCN(C2CCOC2)C3)c(-c2csc(N3CC[C@@]4(C(=O)O)C[C@H]4C3)n2)c1 (some centres unmarked) [Compound 129]
24 | 5 | <24 | 100 (≈ 179 µM) | 73 (≈ 130 µM) | 60 (≈ 107 µM) | Cc1cc(COc2c(C)cccc2-c2csc(N3C[C@@H]4C[C@]4(C(=O)O)C3)n2)cc2c1CN(C1CCOCC1)CC2 [Compound 140]
25 | 3 | 55 | 130 (≈ 227 µM) | 68 (≈ 119 µM) | 27 (≈ 47.1 µM) | Cc1cc(COc2c(C)cccc2-c2csc(N3CC[C@@]4(C(=O)O)C[C@H]4C3)n2)c(C)c2c1CN(C1CCOC1)CC2 (some centres unmarked) [Compound 100]
26 | 18 | <24 | 117 (≈ 193 µM) | 75.5 (≈ 125 µM) | 71.8 (≈ 119 µM) | CO[C@H]1CN(c2nc(-c3cccc(C)c3OCc3ccc4c(c3C)CCN(C3CCOCC3)CC4)cs2)CC[C@H]1C(=O)O [Compound 288]
27 | 12 | <24 | 120 (≈ 211 µM) | 95 (≈ 167 µM) | 82 (≈ 144 µM) | COC[C@H]1N(c2cccc(-c3cccc(C)c3OCc3cc(C)c4c(c3)CCN(C3COC3)C4)n2)C[C@@H]2C[C@@]21C(=O)O [Compound 49]
28 | 4 | 43 | 120 (≈ 214 µM) | 69 (≈ 123 µM) | 48 (≈ 85.8 µM) | Cc1cccc(-c2csc(N3CC[C@@]4(C(=O)O)C[C@H]4C3)n2)c1OCc1ccc2c(c1C)CCN(C1CCOC1)C2 (some centres unmarked) [Compound 88]
29 | 23 | <24 | 110 (≈ 193 µM) | 69 (≈ 121 µM) | 69 (≈ 121 µM) | Cc1cccc(-c2csc(N3C[C@@H]4C[C@]4(C(=O)O)C3)n2)c1OCc1cc(C#N)c2c(c1)CCN(C1CCOCC1)C2 [Compound 142]
30 | 28 | <24 | 97 (≈ 169 µM) | 72 (≈ 125 µM) | 63 (≈ 110 µM) | Cc1cc(COc2c(C)cccc2-c2csc(N3C[C@H]4C[C@@]4(C(=O)O)[C@@H]3C)n2)cc2c1CN(C1CCOCC1)CC2 [Compound 157]
31 | 34 | <24 | 98 (≈ 180 µM) | 37 (≈ 67.8 µM) | 35 (≈ 64.1 µM) | Cc1ccc(OCc2ccc3c(c2C)CCN(C2COC2)CC3)c(-c2csc(N3C[C@@H]4C[C@]4(C(=O)O)C3)n2)c1 [Compound 149]
